# Results: patent EP4722209A1 (Beijing Shenogen Pharma Group, priority 2023, dated 2024)
# How the values were obtained:
# [1] = test system: MCF-7/ERα Y537S xenografts; test: Anti-tumor activity in MCF-7 xenografts expressing ERα Y537S mutant; type: in vivo, female Balb/c nude mice; details: 1, 3 and 10 mpk, daily oral gavage, 17 days
# Source text: (§1) MCF-7/ERα Y537S tumors that had been passaged in mice for more than three but less than ten generations were transplanted as approximately 3×3×3 mm tumor blocks into the subcutaneous right flank of female Balb/c nude mice. When the tumor volume in the tumor-bearing mice reached around 200 mm^3, the mice were randomly divided into four groups according to tumor volume and body weight: vehicle group, 1 mpk group, 3 mpk group, and 10 mpk group, 7 mice in each group. The day of grouping was designated as D0, and daily oral gavage administration began on this day and last for a total of 17 days. The 17th day after administration was designated as Day 17.
# (§2) The tumor volume was measured twice weekly using a caliper, and the body weight of the mice was measured using an analytical balance. The length and width of the tumor were measured, and the formula for tumor volume calculation is: Tumor Volume (TV) = 0.5 × length × width× width. The T/C value was calculated based on the tumor volume, where T is the mean relative tumor volume (RTV) of the treated groups, and C is the mean RTV of the vehicle group. The RTV is the ratio of the tumor volume after administration to the tumor volume before administration. The tumor growth inhibition rate (TGITV) (%) = (1 - T/C) × 100%.
# [2] = Body weight of MCF-7/ERα Y537S xenograft mice; type: in vivo, female Balb/c nude mice; details: 1, 3 and 10 mpk, daily oral gavage, 17 days
# Source text: as §1, §2
# ERα = target: T1, ERα (Homo sapiens, UniProt P03372); test: ER degradation activity in MCF-7 cells (Western blot, grayscale intensity); type: cell-based; details: 6 hours treatment, 1 nM to 100 nM, concentration required to degrade 50% of the target protein
# T1 construct: host or cells: MCF-7
# T1 sequence (P03372 1-595): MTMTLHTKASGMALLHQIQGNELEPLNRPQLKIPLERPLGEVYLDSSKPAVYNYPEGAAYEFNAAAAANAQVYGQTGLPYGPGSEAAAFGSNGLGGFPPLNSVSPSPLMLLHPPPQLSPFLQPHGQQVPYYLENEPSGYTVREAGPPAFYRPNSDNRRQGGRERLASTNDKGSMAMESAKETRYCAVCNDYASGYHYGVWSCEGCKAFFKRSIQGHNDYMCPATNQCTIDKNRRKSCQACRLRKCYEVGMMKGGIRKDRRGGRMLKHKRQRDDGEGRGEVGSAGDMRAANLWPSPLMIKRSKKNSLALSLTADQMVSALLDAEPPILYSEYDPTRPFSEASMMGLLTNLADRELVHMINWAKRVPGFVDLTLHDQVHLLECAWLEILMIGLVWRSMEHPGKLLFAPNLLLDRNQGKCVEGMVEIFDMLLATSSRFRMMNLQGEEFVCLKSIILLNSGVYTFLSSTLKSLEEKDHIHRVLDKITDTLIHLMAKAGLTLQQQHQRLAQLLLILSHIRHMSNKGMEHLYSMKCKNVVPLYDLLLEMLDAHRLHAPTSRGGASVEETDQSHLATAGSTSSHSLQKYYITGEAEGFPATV
# How it was run: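 MCF-7 cells were treated 24 h after seeding with test compounds at 1 nM to 100 nM final (0.2% DMSO) for 6 h at 37 °C. ERα in lysates (30 µg protein) was detected by Western blot with ECL; degradation was quantified from band grayscale intensity and DC50 derived.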
# MCF-7 cells = test: Inhibition of MCF-7 cell proliferation (CellTiter-Glo cell viability); type: cell-based; details: Homo sapiens, MCF7, 144 h, 6 days treatment, 1 pM to 10 µM
# Protocol: ERα-positive human breast cancer cells MCF-7 (ATCC, HTB-22) were cultured with EMEM medium (ATCC, catalog number 30-2003) containing 10% fetal bovine serum (Thermo Fisher, catalog number 10099141) and 10 µg/mL bovine insulin in 25 cm^2 or 75 cm^2 plastic tissue culture flasks in a 37 °C incubator with 5% CO2. The cells were passaged 2 to 3 times per week.
# MCF-7 cells were seeded in 96-well plate at 3×10^3 cells/well with 90 µL culture medium per well, and cultured in a 37 °C incubator with 95% air and 5% CO2. After 24 hours, the test compounds were added: the compounds were serially diluted 10-fold in DMSO starting from 10 mM (dissolved in DMSO) to prepare gradient stock solutions. A complete culture medium containing 1% DMSO was prepared for further dilution, temporarily named as the "dilution buffer." Working solutions were prepared by diluting each stock solution with 99 times the volume of dilution buffer, that is, by adding 1 µL of the 10 mM stock solution to 99 µL of the dilution buffer and mixing thoroughly. Finally, 10 µL of the working solution was added to the cell-seeded culture plate. The final concentration of DMSO in the cell culture medium was 0.2%, and the final concentration of the test compounds ranged from 1 pM to 10 µM. The cells were then incubated at 37 °C for 3 days. The culture medium was removed and replaced with 90µL per well of fresh medium. According to the above compound dilution method, the test compounds were added again. On the 6th day, the CellTiter Glo luminescent cell viability assay kit (Promag, item number G7573) was added for cell viability measurement.
# Cell viability was measured using the CellTiter-Glo assay kit, and the half-maximal growth inhibitory concentration (GI50) of the compounds was calculated using the Prism software.
# The GI50 values (i.e., the concentration of the test compounds required to inhibit 50% of the cell proliferation) were calculated and shown in Table 2. A corresponds to a GI50 value below 10 nM, B corresponds to a GI50 value greater than 10 nM and less than 100 nM, and C corresponds to GI50 values greater than 100 nM. Table 2. The GI50 values of exemplary compounds in MCF-7 cells
SMILES,tumor growth inhibition [1],effect on body weight [2],DC50 (ERα),GI50 (MCF-7 cells)
CC1(C)CC(=C(c2ccc(N3CCC(CN4CCN(c5ccc6c(c5)CN([C@H]5CCC(=O)NC5=O)C6=O)CC4)CC3)nc2)c2ccc3[nH]nc(F)c3c2)CC(C)(C)O1 [Compound 110],dose-dependent tumor growth inhibition,no effect,< 10 nM,< 10 nM
CC1(C)CC(=C(c2ccc(N3CCN(C4CCN(c5ccc6c(c5)C(=O)N(C5CCC(=O)NC5=O)C6=O)CC4)CC3)cc2)c2ccc3[nH]nc(F)c3c2)CC(C)(C)O1 (stereo not shown) [Compound 22],,,< 10 nM,< 10 nM
CC1(C)CC(=C(c2ccc(N3CCC4(CC3)CN(C3CCN(c5ccc6c(c5)CN(C5CCC(=O)NC5=O)C6=O)CC3)C4)nc2)c2ccc3[nH]nc(F)c3c2)CC(C)(C)O1 (stereo not shown) [Compound 47],,,< 10 nM,< 10 nM
CC1(C)CC(=C(c2ccc(N3CCC4(CC3)CC(N3CCN(c5ccc6c(c5)CN([C@H]5CCC(=O)NC5=O)C6=O)CC3)C4)nc2)c2ccc3[nH]nc(F)c3c2)CC(C)(C)O1 [Compound 120],dose-dependent tumor growth inhibition,no effect,< 10 nM,< 10 nM
CC1(C)CC(=C(c2ccc(N3CCC(CN4CCN(c5ccc(NC6CCC(=O)NC6=O)c(F)c5)CC4)CC3)nc2)c2ccc3[nH]nc(F)c3c2)CC(C)(C)O1 (stereo not shown) [Compound 89],,,> 100 nM,> 100 nM
CC1(C)CC(=C(c2ccc(N3CCC(CN4CCN(c5ccc6c(c5)C(=O)N(C5CCC(=O)NC5=O)C6=O)CC4)CC3)cc2)c2ccc3[nH]nc(F)c3c2)CC(C)(C)O1 (stereo not shown) [Compound 6],,,< 10 nM,< 10 nM
